In PubChem BioAssay AID256 (DTP/NCI, 2004):
“And” between values parts separate entries of the source, which are not always exact repeats. Identical values can stand only once. Toxic doses and inconclusive results are not listed. Rule for the calls: active = survival T/C of 150% or more; inactive = T/C below 125% in these data.

Test system: CD2F1 mice, L1210 leukemia ip, survival T/C
Test: NCI In Vivo Anticancer Drug Screen. Data for tumor model L1210 Leukemia (intraperitoneal) in CD2F1 (CDF1) mice
Conditions: endpoint: mean survival time, higher = longer survival
In short: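 Read-out first: treated-group measurement over vehicle-control measurement, expressed as a ratio. Animals bore a transplanted tumor line and were dosed with compound or vehicle.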

[1] = dose: 100.0 mg/kg/injection, schedule: Q04DX002 (ip), vehicle: saline
[2] = dose: 200.0 mg/kg/injection, schedule: Q04DX002 (ip), vehicle: saline
[3] = dose: 25.0 mg/kg/injection, schedule: Q01DX009 (ip), vehicle: other
[4] = dose: 50.0 mg/kg/injection, schedule: Q01DX009 (ip), vehicle: other
[5] = dose: 100.0 mg/kg/injection, schedule: Q01DX009 (ip), vehicle: other
[6] = dose: 200.0 mg/kg/injection, schedule: Q01DX009 (ip), vehicle: other
[7] = dose: 100.0 mg/kg/injection, schedule: Q01DX001 (ip), vehicle: saline with Tween-80
[8] = dose: 100.0 mg/kg/injection, schedule: Q01DX009 (ip), vehicle: saline with Tween-80
[9] = dose: 200.0 mg/kg/injection, schedule: Q01DX001 (ip), vehicle: saline with Tween-80
[10] = dose: 200.0 mg/kg/injection, schedule: Q01DX009 (ip), vehicle: saline with Tween-80
[11] = dose: 400.0 mg/kg/injection, schedule: Q01DX001 (ip), vehicle: saline with Tween-80
[12] = dose: 400.0 mg/kg/injection, schedule: Q01DX009 (ip), vehicle: saline with Tween-80
[13] = dose: 100.0 mg/kg/injection, schedule: Q04DX003 (ip), vehicle: saline with Tween-80
[14] = dose: 200.0 mg/kg/injection, schedule: Q04DX003 (ip), vehicle: saline with Tween-80
[15] = dose: 400.0 mg/kg/injection, schedule: Q04DX003 (ip), vehicle: saline with Tween-80

Measured: T/C

COc1ccc(-c2nc(N)ncc2C)cc1
inactive: dose: 100.0 mg/kg/injection, schedule: Q04DX002 (ip), vehicle: other 96 % of control | dose: 200.0 mg/kg/injection, schedule: Q04DX002 (ip), vehicle: other 96 % of control | dose: 400.0 mg/kg/injection, schedule: Q04DX002 (ip), vehicle: other 101 % of control

Clc1ccc2[nH]c3nc4ccccc4nc3c2c1
inactive: dose: 100.0 mg/kg/injection, schedule: Q01DX009 (ip), vehicle: saline 106 % of control | dose: 200.0 mg/kg/injection, schedule: Q01DX009 (ip), vehicle: saline 108 % of control

CN(C)c1nc(N)cc(-c2ccncc2)n1
inactive: [1] 96 % of control | [2] 88 % of control

CSc1cc(=O)n2c3ccccc3c3ccnc1c32
inactive: dose: 1.25 mg/kg/injection, schedule: Q01DX009 (ip), vehicle: saline with Tween-80 103 % of control | dose: 2.5 mg/kg/injection, schedule: Q01DX009 (ip), vehicle: saline with Tween-80 95 % of control | dose: 5.0 mg/kg/injection, schedule: Q01DX009 (ip), vehicle: saline with Tween-80 97 % of control | dose: 10.0 mg/kg/injection, schedule: Q01DX009 (ip), vehicle: saline with Tween-80 110 % of control

CN(Cc1ccc(C#N)cc1)N=Nc1ccc(C(=O)O)cc1
inactive: [3] 106 % of control | [4] 87 % of control | [5] 106 % of control | [6] 102 % of control | dose: 400.0 mg/kg/injection, schedule: Q01DX009 (ip), vehicle: other 120 % of control

O=C(NCCN=Cc1ccccc1)c1ccccc1
inactive: [7] 108 % of control | [8] 98 % of control | [9] 101 % of control | [10] 101 % of control | [11] 95 % of control | [12] 97 % of control

C[S+](C)CC(=O)c1ccccc1O
inactive: [13] 103 % of control | [14] 99 % of control | [15] 100 % of control

CCC1(C)N=C(C)C(C)S1 (stereo unspecified)
inactive: [8] 89 % of control | [10] 100 % of control | [12] 91 % of control

CCC(=O)c1cc([N+](=O)[O-])ccc1N
inactive: [13] 95 % of control | [14] 95 % of control

Cc1ccc(S(=O)(=O)[N-]Cl)cc1.[Cl][Pt][Cl]
inactive: dose: 4.7 mg/kg/injection, schedule: Q04DX003 (ip), vehicle: saline with Tween-80 95 % of control | dose: 9.4 mg/kg/injection, schedule: Q04DX003 (ip), vehicle: saline with Tween-80 100 % of control | dose: 18.75 mg/kg/injection, schedule: Q04DX003 (ip), vehicle: saline with Tween-80 100 % of control | dose: 37.5 mg/kg/injection, schedule: Q04DX003 (ip), vehicle: saline with Tween-80 103 % of control | dose: 75.0 mg/kg/injection, schedule: Q04DX003 (ip), vehicle: saline with Tween-80 103 % of control

O=c1cc(-c2ccccc2)nc(N[N+](=O)[O-])[nH]1
inactive: [13] 100 % of control | [14] 94 % of control

CC(=O)Nc1ccc(SC(=O)N(C)C)cc1
inactive: [13] 92 % of control

C1CO[P+]2(O1)OCCO2
inactive: [1] 95 % of control | [2] 107 % of control | dose: 400.0 mg/kg/injection, schedule: Q04DX002 (ip), vehicle: saline 95 % of control

COc1ccc(N=NNc2ccc(OC)cc2)cc1
inactive: dose: 6.25 mg/kg/injection, schedule: Q01DX009 (ip), vehicle: saline with Tween-80 100 % of control | dose: 12.5 mg/kg/injection, schedule: Q01DX009 (ip), vehicle: saline with Tween-80 96 % of control | dose: 25.0 mg/kg/injection, schedule: Q01DX009 (ip), vehicle: saline with Tween-80 102 % of control

COc1cccc(Cc2c[nH]c(=O)[nH]c2=O)c1
inactive: [13] 98 % of control | [14] 100 % of control | [15] 92 % of control

Cc1cc(C(C)(C)C)c(Oc2ccc([N+](=O)[O-])cc2S(=O)(=O)O)c(C(C)(C)C)c1
inactive: [13] 102 % of control | [14] 101 % of control | [15] 92 % of control

COc1ccc(NC(=O)Nc2ccccc2F)cc1
inactive: [13] 102 % of control | [14] 101 % of control | [15] 95 % of control

CCCCCCCCCCCCCCCCCCCOc1ccc(OCCCCCCCCCCCCCCCC)cc1
inactive: [7] 100 % of control | [9] 96 % of control | [11] 88 % of control

O=C(Nc1ccccc1)Nc1ccc(N(CCCl)CCCl)cc1
inactive: dose: 100.0 mg/kg/injection, schedule: Q01DX001 (ip), vehicle: Klucel (hydroxypropylcellulose) (HPC) 105 % of control | dose: 200.0 mg/kg/injection, schedule: Q01DX001 (ip), vehicle: Klucel (hydroxypropylcellulose) (HPC) 108 % of control | dose: 400.0 mg/kg/injection, schedule: Q01DX001 (ip), vehicle: Klucel (hydroxypropylcellulose) (HPC) 114 % of control

Nc1nc(N)c2c(=O)c(CSc3ccc(C(=O)NC(CCC(=O)O)C(=O)O)cc3)c[nH]c2n1 (stereo unspecified)
inactive: dose: 0.5 mg/kg/injection, schedule: Q01DX005 (ip), vehicle: sodium bicarbonate 92 % of control and 104 % of control | dose: 1.0 mg/kg/injection, schedule: Q01DX005 (ip), vehicle: sodium bicarbonate 92 % of control and 106 % of control | dose: 2.0 mg/kg/injection, schedule: Q01DX005 (ip), vehicle: sodium bicarbonate 89 % of control and 108 % of control | dose: 4.0 mg/kg/injection, schedule: Q01DX005 (ip), vehicle: sodium bicarbonate 95 % of control and 104 % of control | dose: 8.0 mg/kg/injection, schedule: Q01DX005 (ip), vehicle: sodium bicarbonate 95 % of control and 108 % of control | dose: 16.0 mg/kg/injection, schedule: Q01DX005 (ip), vehicle: sodium bicarbonate 95 % of control and 106 % of control

COc1cc(C2c3cc4c(cc3CC3COC(=O)C32)OCO4)cc(OC)c1O (stereo unspecified)
inactive: dose: 0.5 mg/kg/injection, schedule: Q01DX009 (ip), vehicle: saline with Tween-80 91 % of control | dose: 1.0 mg/kg/injection, schedule: Q01DX009 (ip), vehicle: saline with Tween-80 100 % of control | dose: 2.0 mg/kg/injection, schedule: Q01DX009 (ip), vehicle: saline with Tween-80 112 % of control | dose: 4.0 mg/kg/injection, schedule: Q01DX009 (ip), vehicle: saline with Tween-80 100 % of control

COc1ccc(NC(=O)Oc2ccccc2F)c(Cl)c1
inactive: dose: 50.0 mg/kg/injection, schedule: Q01DX009 (ip), vehicle: Klucel (hydroxypropylcellulose) (HPC) 96 % of control | dose: 100.0 mg/kg/injection, schedule: Q01DX009 (ip), vehicle: Klucel (hydroxypropylcellulose) (HPC) 107 % of control | dose: 200.0 mg/kg/injection, schedule: Q01DX009 (ip), vehicle: Klucel (hydroxypropylcellulose) (HPC) 104 % of control

Nc1nnnn1C1CCCCC1
inactive: [14] 106 % of control | [12] 92 % of control | [15] 97 % of control

CC(C#N)(Cc1ccccc1)Nc1ccccc1 (stereo unspecified)
inactive: [13] 97 % of control | [14] 91 % of control

CN1C(=O)C=CC1=O
inactive: dose: 0.5 mg/kg/injection, schedule: Q01DX009 (ip), vehicle: saline 101 % of control | dose: 1.0 mg/kg/injection, schedule: Q01DX009 (ip), vehicle: saline 95 % of control | dose: 2.0 mg/kg/injection, schedule: Q01DX009 (ip), vehicle: saline 93 % of control | dose: 4.0 mg/kg/injection, schedule: Q01DX009 (ip), vehicle: saline 95 % of control

CC(=O)OCC1OC(OC(C)=O)C(NC(=O)Nc2cccc([N+](=O)[O-])c2)C(OC(C)=O)C1OC(C)=O (stereo unspecified)
inactive: dose: 12.5 mg/kg/injection, schedule: Q01DX009 (ip), vehicle: other 96 % of control | [3] 96 % of control | [4] 98 % of control | [5] 100 % of control | [6] 93 % of control
